From PMC6173696, “Structural properties of a haemophore facilitate targeted elimination of the pathogen Porphyromonas gingivalis” (Nature Communications, 2018)

How the values were obtained:
[1] = system: P. gingivalis wild-type W83; test: P8 growth inhibition under iron restriction (100 µM dipyridyl); assay type: cell-based, Porphyromonas gingivalis; details: P8 at 1 µM (below the MIC)
Description: Fig. 5 A prototype DPIX-conjugated antibiotic binds HusA and inhibits P. gingivalis. a The chemical structure of the deuteroporphyrin-lysine-metronidazole adduct, P8. b NMR signal intensity changes (black) and ^1H^N CSPs (red/green) for HusA upon addition of P8 (measured from ^15N-HSQC spectra shown in Supplementary Figure 21). c In silico docking of P8 to the energy minimized structure of HusA (conformer set 1), with residues experiencing NMR signal loss (orange) or CSPs (red/green) mapped to the structure (colouring as described in Fig. 2d). d Scaled and corrected fluorescence at 335 nm during titration of 1 μM of HusA with increasing concentrations of P8, haemin or DPIX. e Comparison of P8 inhibitory effect towards P. gingivalis wild-type W83 and husA mutants using checkerboard analysis. Serial dilutions of antibiotics (horizontal axis) were applied to a 96-well plate with different P. gingivalis strains (vertical axis). Serial dilutions of DPIX were also supplemented into wild-type W83 group to evaluate the competitive effect against P8. Absorption at OD600 of each well was recorded after 24 h of incubation. The OD600 of each strain grown in the absence of antibiotics was defined as 100% growth, which was applied to normalise the reading collected from other wells. […] Recovered bacteria were determined by CFU count. […]

[2] = system: P. gingivalis wild type W83; test: Time-kill experiment with high and low densities of bacteria, iron limited; assay type: cell-based, Porphyromonas gingivalis
Description: Supplementary Figure 22. Time-kill experiment with high and low densities of P. gingivalis wild type W83 in the presence of P8 antibiotic under iron limited condition. (A) Representative planktonic growth curves show control P. gingivalis culture without P8 antibiotic (filled dark blue circle), P8 at 0.5 µM (light blue circle) and 2.5 µM (dash-filled light blue circle) added at the commencement of growth. (B) Representative planktonic growth curves shown control P. gingivalis culture without P8 antibiotic (filled dark blue circle), P8 at 0.5 µM (dash-filled light blue circle) and 2.5 µM (filled light blue circle) added to the exponentially growing cultures.
(1 picture or pasted object on this page, not shown here) […]
1) Fig. 1A still needs confirmation with the inclusion of two additional panels.
(a) Effect of 0.5 µM P8 added to the culture prior to the commencement of growth. (b) Effect of adding 0.5 µM P8 to actively growing cultures of P. gingivalis W83
Response: The growth curve studies, including addition of 0.5µM P8 prior to the commencement of […]
the commencement of growth (low bacteria density).
2.5 µM P8 under the same condition. When added to the actively growing culture (high bacteria density) of P. gingivalis W83, both 0.5 µM and 2.5 µM P8 retard growth with the 2.5 µM P8 treatment achieving a relative lower density at stationary phase. The MIC of P8 is correlated to the initial bacteria densities in the inoculum. Udekwu et al. have reported that higher concentration of antibiotics is required to achieve the MIC when treating higher densities of bacteria albeit with variation according to class of drug […]
As P8 is introduced in the later section of the main text, we have presented the results as Supplementary […]
is not uniform in panel “i”.
3) HSQC spectra for the interaction of HusA with P8 should be provided (analogous to Supplementary
Fig. 18A, where the authors have done a nice job of showing the data down to noise level). Specifically, HSQC superpositions of DPIX and P8 would make for direct comparison. Similarly, the authors would also need to show an HSQC comparison of HusA alone and bound to P8. Indeed, Supplementary Fig. 21 is helpful in analyzing the exchange regimes of a couple of residues, but it doesn't give a global picture of […]

HusA NNNA = test: Haemin binding to HusA mutant with all four mutations (NNNA), UV-vis and fluorescence; design: species or system Porphyromonas gingivalis; details: mutant incorporating all four mutations (L123, V124, W130, Y164)
Description: All absorbance spectra were recorded at room temperature using 10-mm quartz cuvettes on a Shimadzu UV-1601 or Jasco V-630 spectrophotometer. Mixtures of HusA/mutant with porphyrins were prepared by dissolving porphyrin stocks in standard buffer to a final concentration of 5–20 μM with a 1–1.5 molar ratio of protein to porphyrin, as specified in the relevant figure legends. PPIX:HusA mixtures were prepared by incremental addition of 2–4 μM HusA with a 10–15 min wait after each addition of HusA.
The quenching of intrinsic tryptophan fluorescence of HusA upon porphyrin additions was measured using a Carey Eclipse Fluorescence Spectrophotometer (Agilent) set to a photo multiplier effect (PME) of 850. A 5-mm path length quartz cuvette was used and all spectra were acquired at room temperature. Excitation was set to 295 nm and emission was measured from 300 nm to 500 nm using excitation/emission slit widths of 5 nm. Binding assays were performed at a protein concentration of 1 μM HusA in standard buffer at a working volume of 0.5 mL. […] The fluorescence quenching of HusA by PPIX was investigated in a similar manner with the following difference: the fluorescence intensities of ten 1 μM HusA samples were measured each with increasing amounts of PPIX after a 2-h incubation period to allow equilibrium to be reached. […]

HusA = test: Acid-alkaline transition of UV-vis spectra, haemin bound to HusA and Y164A/F mutants; assay type: physicochemical, Porphyromonas gingivalis; details: haemin bound to HusA and the Y164A/F mutants
Description: (§1) Spectra were recorded in 0.1 M NaCl with 0.1 M of the following buffers: citrate, pH 5.0; BisTris-HCl, pH 5.5; BisTris-HCl, pH 5.75: BisTris-HCl, pH 6.0; sodium phosphate, pH 6.5; sodium phosphate, pH 7.0; sodium phosphate, pH 7.5; Tris-HCl, pH 8.0; sodium borate, pH 9.0; sodium borate/NaOH, pH 9.8; sodium carbonate, pH 10.0 (not all titration points were collected for each protein)

[3] = assay type: physicochemical; details: aqueous haemin, 5 µM
Description: as §1

Row | Structure (SMILES) | susceptibility of W83 under iron restriction [1] | effect on growth ([2]; 0.5 µM P8 added prior to the commencement of growth (low bacteria density), dipyridyl) | effect on growth ([2]; 0.5 µM P8 added to the actively growing culture (high bacteria density)) | effect on growth ([2]; 2.5 µM P8 added prior to the commencement of growth, dipyridyl) | effect on growth ([2]; 2.5 µM P8 added to the actively growing culture, relative lower density at stationary phase) | binding to haemin (HusA NNNA) | pKa of acid-alkaline transition (HusA) | pKa of acid-alkaline transition (HusA; listed as haem) | pKa of acid-alkaline transition [3]
1 | CC1=Cc2cc3[nH]c(cc4nc(cc5[nH]c(cc1n2)cc5C)C(C)=C4CCC(=O)N[C@@H](CCCCNC(=O)OC(C)(C)C)C(=O)NCCn1c([N+](=O)[O-])cnc1C)c(CCC(=O)O)c3C [P8] | susceptible | retards the growth | retard growth | fails to growth | retard growth | – | – | – | –
2 | C=CC1=C(C)c2cc3[nH]c(cc4nc(cc5[nH]c(cc1n2)c(C)c5CCC(=O)O)C(CCC(=O)O)=C4C)c(C)c3C=C.[Fe+3] [haemin] | – | – | – | – | – | minimal binding | 6.1–6.5 | 6-6.5 | 6.7
